Results as given in PubChem BioAssay AID1963850 (Molecular Pharmacology Branch, DTP, NCI, 2024).

Test system: 192522-019-R-J2-PDC complex tumor spheroid viability
Assay: Anticancer human tumor 192522-019-R-J2-PDC patient-derived colon adenocarcinoma cell line growth inhibition [POLQ]
Conditions: for IC50: curve of first compound; for viability, T/C: stronger effect = lower value
Protocol: Multicellular complex tumor spheroid response to Polymerase (POL) inhibitors (novobiocin, ART-558, RP6685) in combination with a variety of drugs and investigational agents in selected tumor cell lines
The POL inhibitors (novobiocin, ART-558, and RP6685) were evaluated both individually and in combination with standard of care and investigational anticancer small molecules within a complex spheroid model of solid tumors. . Complex spheroids include a stromal component modeled by human endothelial cells (HUVEC) and fibroblasts modeled by human mesenchymal stem cells (MSCs). The concentration ranges selected for each drug and investigational agent were based upon clinically achievable concentrations if the clinical Cmax of the agent was known.
Compounds. The drugs and investigational agents: novobiocin (NSC847541), ART-558 (NSC835418), RP-6685 (NSC848927), peposertib (NSC802822), ceralasertib (NSC780249), elimusertib (NSC800525), camonsertib (NSC841442), AZD-1390 (NSC803789), olaparib (NSC753686), talazoparib (NSC767125), rucaparib (NSC756644), sotorasib (NSC818433), MRTX-1133 (NSC836407), SN-38 (NSC673596), topotecan (NSC609699), epotoside (NSC141540), doxorubicin (NSC123127), gemcitabine (NSC613327), 5-fluorouracil (NSC19893), paclitaxel (NSC125973), vemurafenib (NSC761431), MSA-2 (NSC828583), SN-011 (NSC837082), adavosertib (NSC754352), prexasertib (NSC758257), carboplatin (NSC241240) and oxaliplatin (NSC266046), were obtained from the National Cancer Institute (NCI) Developmental Therapeutics Program Chemical Repository (21). The FDA-approved anticancer drug set is available from the Developmental Therapeutics Program at https://dtp.cancer.gov/organization/dscb/obtaining/. […] The stock solutions were prepared in dimethyl sulfoxide (DMSO, Sigma-Aldrich, St. Louis, MO, cat. D2650), except for the platinum compounds which were prepared in saline (Quality Biological, Gaithersburg, MD, cat. 114-055-101), at 800-fold the tested concentration and stored at -70 degrees C prior to their use. All drugs and investigational agents were tested over a range starting from a high concentration at or near the clinical Cmax and decreasing in half-log increments. If the clinical Cmax for an agent had not been determined, the highest concentration tested was 10 microM, except for SN-38, which was tested at a high concentration of 1 microM.
Cell Culture. All cells were maintained in an incubator at 37 degrees C and 5% CO2 with 95% humidity. The PDC lines were cultured according to standard operating procedures established by the NCI PDMR (https://pdmr.cancer.gov). Table 3 of the manuscript, lists the cell lines along with the number of the three cell types plated to form the mct-spheroids and media for tumor cell growth. After thawing, all PDC lines, except 997537-175-T-J1-PDC and 415267-285-R-J2-PDC, were cultured in Matrigel-coated flasks prepared with a working solution of 1X Ham's F-12 nutrient mix, without supplementation (Thermo Fisher Scientific, cat. 11765054), 100 U/mL penicillin-streptomycin (Thermo Fisher Scientific, cat. 15140122), and 2.5% Matrigel (Corning Inc., Corning, NY, cat. 354248) for the first three passages. The two PDC lines 997537-175-T-J1-PDC and 415267-285-R-J2-PDC were cultured on uncoated flasks. The 857933-349-R-J2-PDC line was cultured in 6C/Colon 1B media containing advanced DMEM/F-12 (Thermo Fisher Scientific, cat. 12634028), 10 mM HEPES (Thermo Fisher Scientific, cat. 15630080), 1X GlutaMAX supplement (Thermo Fisher Scientific, cat. 35050061), 0.1 mg/mL primocin (InvivoGen, San Diego, CA, cat. ant-pm-2), 10% defined fetal bovine serum, heat inactivated (HyClone Laboratories Inc., Logan, UT, cat. SH30070.03HI), 50% L-WRN conditioned media (ATCC, cat. CRL-3276), 1.25 mM N-Acetyl-L-cysteine (Sigma-Aldrich, cat. A9165), 10 mM nicotinamide (Sigma-Aldrich, cat. N0636), 1X B-27 supplement (Thermo Fisher Scientific, cat. 17504044), 1X N-2 supplement (Thermo Fisher Scientific, cat. […]

[1] = second compound 0.0316 µM, first compound 0.0316 µM
[2] = second compound 0.0316 µM, first compound 0.1 µM
[3] = second compound 0.0316 µM, first compound 0.316 µM
[4] = second compound 0.0316 µM, first compound 1 µM
[5] = second compound 0.0316 µM, first compound 3.16 µM
[6] = second compound 0.0316 µM, first compound 10 µM
[7] = second compound 0.1 µM, first compound 0.0316 µM
[8] = second compound 0.1 µM, first compound 0.1 µM
[9] = second compound 0.1 µM, first compound 0.316 µM
[10] = second compound 0.1 µM, first compound 1 µM
[11] = second compound 0.1 µM, first compound 3.16 µM
[12] = second compound 0.1 µM, first compound 10 µM
[13] = second compound 0.316 µM, first compound 0.0316 µM
[14] = second compound 0.316 µM, first compound 0.1 µM
[15] = second compound 0.316 µM, first compound 0.316 µM
[16] = second compound 0.316 µM, first compound 1 µM
[17] = second compound 0.316 µM, first compound 3.16 µM
[18] = second compound 0.316 µM, first compound 10 µM
[19] = second compound 1 µM, first compound 0.0316 µM
[20] = second compound 1 µM, first compound 0.1 µM
[21] = second compound 1 µM, first compound 0.316 µM
[22] = second compound 1 µM, first compound 1 µM
[23] = second compound 1 µM, first compound 3.16 µM
[24] = second compound 1 µM, first compound 10 µM
[25] = second compound 3.16 µM, first compound 0.0316 µM
[26] = second compound 3.16 µM, first compound 0.1 µM
[27] = second compound 3.16 µM, first compound 0.316 µM
[28] = second compound 3.16 µM, first compound 1 µM
[29] = second compound 3.16 µM, first compound 3.16 µM
[30] = second compound 3.16 µM, first compound 10 µM
[31] = second compound 10 µM, first compound 0.0316 µM
[32] = second compound 10 µM, first compound 0.1 µM
[33] = second compound 10 µM, first compound 0.316 µM
[34] = second compound 10 µM, first compound 1 µM
[35] = second compound 10 µM, first compound 3.16 µM
[36] = second compound 10 µM, first compound 10 µM
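Further: spheroids exposed to drugs for seven days before reading.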
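Wherever viability, T/C is given: 100% = DMSO vehicle control viability in luminescence.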

CCc1cc2c(N3CCc4c(cc(Cn5ccnc5)cc4-c4cn(C)nc4C(F)(F)F)C3=O)cc(C)nc2c(OC)n1 + COC1C(OC(N)=O)C(O)C(Oc2ccc3c(O)c(NC(=O)c4ccc(O)c(CC=C(C)C)c4)c(=O)oc3c2C)OC1(C)C
IC50 (second compound 0.0316 µM): > 10 µM | IC50 (second compound 0.1 µM): > 10 µM | IC50 (second compound 0.316 µM): > 10 µM | IC50 (second compound 1 µM): > 10 µM | IC50 (second compound 3.16 µM): > 10 µM | IC50 (second compound 10 µM): > 10 µM | viability, T/C [1]: 95.6% | viability, T/C [2]: 90.6% | viability, T/C [3]: 90.5% | viability, T/C [4]: 82.8% | viability, T/C [5]: 79.2% | viability, T/C [6]: 60.7% | viability, T/C [7]: 94.2% | viability, T/C [8]: 94.3% | viability, T/C [9]: 81.5% | viability, T/C [10]: 82.4% | viability, T/C [11]: 72.3% | viability, T/C [12]: 67.4% | viability, T/C [13]: 101% | viability, T/C [14]: 96.7% | viability, T/C [15]: 96.1% | viability, T/C [16]: 81.6% | viability, T/C [17]: 82.6% | viability, T/C [18]: 69.7% | viability, T/C [19]: 99% | viability, T/C [20]: 96.8% | viability, T/C [21]: 85.1% | viability, T/C [22]: 84.3% | viability, T/C [23]: 68.5% | viability, T/C [24]: 72.4% | viability, T/C [25]: 95.6% | viability, T/C [26]: 98.8% | viability, T/C [27]: 87.1% | viability, T/C [28]: 83.9% | viability, T/C [29]: 74.6% | viability, T/C [30]: 66.2% | viability, T/C [31]: 102% | viability, T/C [32]: 91.4% | viability, T/C [33]: 87.5% | viability, T/C [34]: 80.6% | viability, T/C [35]: 88.9% | viability, T/C [36]: 73.4%

Nc1ccn(C2OC(CO)C(O)C2(F)F)c(=O)n1 (stereo unspecified) + COC1C(OC(N)=O)C(O)C(Oc2ccc3c(O)c(NC(=O)c4ccc(O)c(CC=C(C)C)c4)c(=O)oc3c2C)OC1(C)C
IC50 (second compound 0.0316 µM): > 10 µM | IC50 (second compound 0.1 µM): > 10 µM | IC50 (second compound 0.316 µM): > 10 µM | IC50 (second compound 1 µM): > 10 µM | IC50 (second compound 3.16 µM): > 10 µM | IC50 (second compound 10 µM): > 10 µM | viability, T/C [1]: 98.8% | viability, T/C [2]: 72.9% | viability, T/C [3]: 75.7% | viability, T/C [4]: 63.5% | viability, T/C [5]: 66% | viability, T/C [6]: 53.9% | viability, T/C [7]: 95.6% | viability, T/C [8]: 80.1% | viability, T/C [9]: 76.5% | viability, T/C [10]: 66% | viability, T/C [11]: 58% | viability, T/C [12]: 57.3% | viability, T/C [13]: 90.2% | viability, T/C [14]: 79.7% | viability, T/C [15]: 72.6% | viability, T/C [16]: 62.4% | viability, T/C [17]: 60.3% | viability, T/C [18]: 59.5% | viability, T/C [19]: 86.1% | viability, T/C [20]: 84.9% | viability, T/C [21]: 73.9% | viability, T/C [22]: 72% | viability, T/C [23]: 56.2% | viability, T/C [24]: 58.4% | viability, T/C [25]: 91.9% | viability, T/C [26]: 87.3% | viability, T/C [27]: 74.8% | viability, T/C [28]: 62.9% | viability, T/C [29]: 62.6% | viability, T/C [30]: 53.5% | viability, T/C [31]: 95.8% | viability, T/C [32]: 89.4% | viability, T/C [33]: 75.7% | viability, T/C [34]: 65.1% | viability, T/C [35]: 66.9% | viability, T/C [36]: 58.7%

COc1cccc2c1C(=O)c1c(O)c3c(c(O)c1C2=O)CC(O)(C(=O)CO)CC3OC1CC(N)C(O)C(C)O1 (stereo unspecified) + Cc1cccc(N(C)C(=O)C2C(O)CCN2c2nc(C)cc(C(F)(F)F)c2C#N)c1
IC50 (second compound 0.0316 µM): > 10 µM | IC50 (second compound 0.1 µM): > 10 µM | IC50 (second compound 0.316 µM): > 10 µM | IC50 (second compound 1 µM): > 10 µM | IC50 (second compound 3.16 µM): > 10 µM | IC50 (second compound 10 µM): > 10 µM | viability, T/C [1]: 99.3% | viability, T/C [2]: 79.8% | viability, T/C [3]: 73.9% | viability, T/C [4]: 86.3% | viability, T/C [5]: 69.6% | viability, T/C [6]: 57.2% | viability, T/C [7]: 94% | viability, T/C [8]: 85.6% | viability, T/C [9]: 72.5% | viability, T/C [10]: 83.8% | viability, T/C [11]: 69.1% | viability, T/C [12]: 67.7% | viability, T/C [13]: 98.3% | viability, T/C [14]: 91.1% | viability, T/C [15]: 69.4% | viability, T/C [16]: 77% | viability, T/C [17]: 65.2% | viability, T/C [18]: 63.3% | viability, T/C [19]: 110% | viability, T/C [20]: 92% | viability, T/C [21]: 76.5% | viability, T/C [22]: 83.7% | viability, T/C [23]: 75.5% | viability, T/C [24]: 61.1% | viability, T/C [25]: 96.5% | viability, T/C [26]: 99.9% | viability, T/C [27]: 74.2% | viability, T/C [28]: 69.7% | viability, T/C [29]: 70.9% | viability, T/C [30]: 60.3% | viability, T/C [31]: 102% | viability, T/C [32]: 79.1% | viability, T/C [33]: 69.9% | viability, T/C [34]: 62.7% | viability, T/C [35]: 67.3% | viability, T/C [36]: 49.8%
